# Assays:
# Assay type in all cases: functional
# [1] = system: Mycobacterium intracellulare; assay: Antibacterial activity against Mycobacterium intracellular.
# [2] = system: Mycobacterium tuberculosis; assay: Antibacterial activity against Mycobacterium tuberculosis H37Rv.
# Mycobacterium kansasii = assay: Antibacterial activity against Mycobacterium kansasii
SMILES,MIC [1] [µg/mL],MIC [2] [µg/mL],MIC (Mycobacterium kansasii) [µg/mL]
CN[C@@H]1[C@H](O[C@H]2[C@H](O[C@H]3[C@H](O)[C@@H](O)[C@H](N=C(N)N)[C@@H](O)[C@@H]3N=C(N)N)O[C@@H](C)[C@]2(O)C=O)O[C@@H](CO)[C@H](O[C@@H]2O[C@H](CO)[C@@H](O)[C@H](O)[C@@H]2O)[C@H]1O,12.5,0.78,3.13
O=C(c1ccccc1SSc1ccccc1C(=O)N1CCN(C/C=C/c2ccccc2)CC1)N1CCN(C/C=C/c2ccccc2)CC1,> 100,100,> 100
CCOC(=O)CNC(=O)c1ccccc1SSc1ccccc1C(=O)NCC(=O)OCC,25,25,25
O=C(NCC(O)c1ccccc1)c1ccccc1SSc1ccccc1C(=O)NCC(O)c1ccccc1 (stereo not drawn),> 100,100,100
CCCCc1ccc(NC(=O)c2ccccc2SSc2ccccc2C(=O)Nc2ccc(CCCC)cc2)cc1,12.5,0.78,12.5
O=C(NCC(O)c1ccc(O)c(O)c1)c1ccccc1SSc1ccccc1C(=O)NCC(O)c1ccc(O)c(O)c1 (stereo not drawn),> 100,100,> 100
O=C(Nc1cccc(C(F)(F)F)c1)c1ccccc1SSc1ccccc1C(=O)Nc1cccc(C(F)(F)F)c1,25,12.5,25
O=C(NCCNCCO)c1ccccc1SSc1ccccc1C(=O)NCCNCCO,> 100,25,> 100
O=C(NCc1cccc2ccccc12)c1ccccc1SSc1ccccc1C(=O)NCc1cccc2ccccc12,> 100,> 100,> 100
O=C(Nc1cc2ccccc2cc1O)c1ccccc1SSc1ccccc1C(=O)Nc1cc2ccccc2cc1O,50,12.5,25
CCn1c2ccccc2c2cc(NC(=O)c3ccccc3SSc3ccccc3C(=O)Nc3ccc4c(c3)c3ccccc3n4CC)ccc21,> 100,3.13,50
O=c1c2ccccc2sn1CO,12.5,12.5,12.5
CCCCCCCCCCCCCCCC(=O)OCCNC(=O)c1ccccc1SSc1ccccc1C(=O)NCCOC(=O)CCCCCCCCCCCCCCC,100,100,100
O=C(Nc1ccc(S(=O)(=O)Nc2nc3ccccc3s2)cc1)c1ccccc1SSc1ccccc1C(=O)Nc1ccc(S(=O)(=O)Nc2nc3ccccc3s2)cc1,100,100,50
CN1CCCN(C(=O)c2ccccc2SSc2ccccc2C(=O)N2CCCN(C)CC2)CC1,> 100,> 100,> 100
O=C(Nc1ccc(Br)c2ccccc12)c1ccccc1SSc1ccccc1C(=O)Nc1ccc(Br)c2ccccc12,> 100,12.5,50

SMILES,MIC [1] [µg/mL],MIC [2] [µg/mL],MIC (Mycobacterium kansasii) [µg/mL]
O=C(c1ccccc1SSc1ccccc1C(=O)N1C(=O)c2ccccc2C1=O)N1C(=O)c2ccccc2C1=O,> 100,> 100,> 100
O=C(NC1CCC(O)CC1)c1ccccc1SSc1ccccc1C(=O)NC1CCC(O)CC1 (stereo not drawn),25,12.5,25
CCOc1ccc2nc(NC(=O)c3ccccc3SSc3ccccc3C(=O)Nc3nc4ccc(OCC)cc4s3)sc2c1,> 100,> 100,> 100
CC(CCc1ccccc1)NC(=O)c1ccccc1SSc1ccccc1C(=O)NC(C)CCc1ccccc1 (stereo not drawn),> 100,100,> 100
CCCCCCCCCCCC(=O)OCCCNC(=O)c1ccccc1SSc1ccccc1C(=O)NCCCOC(=O)CCCCCCCCCCC,> 100,0.78,12.5
CCC(CO)NC(=O)c1ccccc1SSc1ccccc1C(=O)NC(CC)CO (stereo not drawn),25,12.5,25
O=C(Nc1cccc([N+](=O)[O-])c1)c1ccccc1SSc1ccccc1C(=O)Nc1cccc([N+](=O)[O-])c1,> 100,100,> 100
O=C(NCO)c1ccccc1SSc1ccccc1C(=O)NCO,25,6.25,25
O=C(c1ccccc1SSc1ccccc1C(=O)n1nnc2ccccc21)n1nnc2ccccc21,> 100,> 100,> 100
CCCCCCCCCCCC(=O)OC(C)CNC(=O)c1ccccc1SSc1ccccc1C(=O)NCC(C)OC(=O)CCCCCCCCCCC (stereo not drawn),100,3.13,50
CCC(CO)(CO)NC(=O)c1ccccc1SSc1ccccc1C(=O)NC(CC)(CO)CO,100,25,25
CCOCCCNC(=O)c1ccccc1SSc1ccccc1C(=O)NCCCOCC,12.5,1.56,12.5
O=c1c2ccccc2sn1CCO,12.5,12.5,25
CCCCCCCCCCCC(=O)OCCNC(=O)c1ccccc1SSc1ccccc1C(=O)NCCOC(=O)CCCCCCCCCCC,100,6.25,25
CCCCN(CCCC)C(=O)c1ccccc1SSc1ccccc1C(=O)N(CCCC)CCCC,25,6.25,25

# — ChEMBL document CHEMBL1122862, “Synthesis and antibacterial activity of 2,2'-dithiobis(benzamide) derivatives against Mycobacterium species” (1985)
